We go through twelve molecules from patent US20240174662A1, “SMALL MOLECULE INHIBITORS OF SALT INDUCIBLE KINASES” (Janssen Biotech, Inc., priority 2021, published 2024).

The target in test [1] is T1, SIK2 (Homo sapiens (Human), UniProt Q9H0K1). Put plainly: SIK2 Enzymatic Assay Version 1 (ADP Glo). The class given is biochemical. The following applies: 80 μM ATP and 70 μM HDAC5tide final, ADPGlo luminescence. Here is the method:
All steps were performed at room temperature. Compounds were pre-plated onto an assay plate using an Echo acoustic dispenser (Labcyte, E550 or E555) at 20 nL per well. Enzyme prepared in Assay Buffer at 0.6 nM (2× final concentration) was added at 2 μL per well using the Multidrop Combi (Thermo Fisher-used for all additions in this assay) to the assay plate, spun for 1 min at 800-850 rpm (Allegra 6KR Beckman Coulter centrifuge), and incubated with compound for 30 minutes. Assay Buffer containing 160 μM ATP and 140 μM HDAC5tide (2× of final concentration for each substrate) was added at 2 μL per well to the assay plate and then spun as above and incubated for 4 hours.
One column of wells was dedicated to a no-peptide negative control (containing only ATP). ADPGlo Reagent (prepared and aliquoted as per manufacturer instructions) was then added at 2 μL per well, spun and incubated for 40 min. ADPGlo Detection (prepared and aliquoted as per manufacturer instructions) was added at 2 μL per well to the assay plate, which was spun and incubated for at least 30 min. The plate was then read on the Pherastar (BMG Labtech) using a luminescence read. Gain was set by the 0.1 mM concentration of ADP wells in the ADP/ATP standard curve plate generated as per manufacturer instructions.

Test [2] concerns the target T1, SIK2. Put plainly: SIK2 Enzymatic Assay Version 2 (High ATP). The test is classed as biochemical. The conditions noted are these: 3 mM ATP and 200 μM HDAC5tide final, ADP-Glo Max luminescence. In short, it runs like this: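 Run at room temperature; SIK2 enzyme at 6 nM (2× final) preincubated with compound 30 min before reaction. ADP formation detected by ADP-Glo Max (2 h reagent, 1 h detection) with luminescence read-out.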

T1 sequence (Q9H0K1 whole entry, species assumed): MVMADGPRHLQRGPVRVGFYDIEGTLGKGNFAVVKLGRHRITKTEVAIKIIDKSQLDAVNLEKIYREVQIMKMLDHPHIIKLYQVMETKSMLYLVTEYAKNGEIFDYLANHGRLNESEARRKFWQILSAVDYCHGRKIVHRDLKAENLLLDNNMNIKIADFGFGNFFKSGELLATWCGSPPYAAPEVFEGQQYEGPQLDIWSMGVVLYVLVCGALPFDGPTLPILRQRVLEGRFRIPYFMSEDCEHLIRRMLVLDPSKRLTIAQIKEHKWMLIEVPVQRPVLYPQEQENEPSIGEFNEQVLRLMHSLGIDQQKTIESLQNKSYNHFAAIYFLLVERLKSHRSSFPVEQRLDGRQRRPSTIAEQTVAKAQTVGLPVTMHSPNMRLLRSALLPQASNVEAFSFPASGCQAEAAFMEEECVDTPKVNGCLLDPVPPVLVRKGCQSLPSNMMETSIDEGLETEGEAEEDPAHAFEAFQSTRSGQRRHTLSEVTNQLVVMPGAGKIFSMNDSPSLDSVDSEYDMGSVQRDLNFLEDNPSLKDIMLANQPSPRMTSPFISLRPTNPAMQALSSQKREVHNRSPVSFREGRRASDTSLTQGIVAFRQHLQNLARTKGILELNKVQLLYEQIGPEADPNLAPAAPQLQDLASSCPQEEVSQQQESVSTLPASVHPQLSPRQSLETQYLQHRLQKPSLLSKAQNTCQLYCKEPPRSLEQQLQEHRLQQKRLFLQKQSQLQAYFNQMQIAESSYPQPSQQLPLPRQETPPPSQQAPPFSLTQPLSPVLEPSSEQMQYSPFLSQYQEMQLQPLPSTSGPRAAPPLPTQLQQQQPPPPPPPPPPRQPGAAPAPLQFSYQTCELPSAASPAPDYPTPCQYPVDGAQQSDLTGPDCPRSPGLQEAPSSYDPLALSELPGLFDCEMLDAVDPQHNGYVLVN

`Cc1oncc1-c1ccn2nc(NC(=O)C3CC3)cc2c1` [Example 486, N-[5-(5-methylisoxazol-4-yl)pyrazolo[1,5-a]pyridin-2-yl]cyclopropanecarboxamide] gave a half-maximal inhibitory concentration (IC50) on SIK2 [1] of 0.0397 µM.
Regarding `CN1CC[C@@H](Oc2cnn(C)c2-c2ccn3nc(NC(=O)C4CC4)cc3c2)C1` [Example 488, N-[5-[2-methyl-4-[(3R)-1-methylpyrrolidin-3-yl]oxy-pyrazol-3-yl]pyrazolo[1,5-a]pyridin-2-yl]cyclopropanecarboxamide], the half-inhibitory concentration (IC50) worked out at 0.00645 µM against SIK2 [1] and 0.424 µM on SIK2 [2].
`CN1CCO[C@H](COc2cnn(C)c2-c2ccn3nc(NC(=O)C4CC4)cc3c2)C1` [Example 487]: the IC50 at SIK2 [1] amounted to 0.0129 µM; on SIK2 [2] it was 0.335 µM.
Molecule `Cc1cc(Nc2cc3cc(-c4c(OC[C@H]5CCN5CCF)cnn4C)ccn3n2)ncn1` [Example 277, 5-[4-[[(2R)-1-(2-fluoroethyl)azetidin-2-yl]methoxy]-2-methyl-pyrazol-3-yl]-N-(6-methylpyrimidin-4-yl)pyrazolo[1,5-a]pyridin-2-amine] displayed an IC50 against SIK2 [2] of 0.0014 µM.
Same read-out and setting: as for `COCCN1CCC[C@@H]1COc1cnn(C)c1-c1ccn2nc(NC(=O)C3CC3)cc2c1` [Example 428, N-[5-[4-[[(2R)-1-(2-methoxyethyl)pyrrolidin-2-yl]methoxy]-2-methyl-pyrazol-3-yl]pyrazolo[1,5-a]pyridin-2-yl]cyclopropanecarboxamide], the figure is 0.183 µM; as for `COC1(COc2noc(C)c2-c2ccn3nc(NC(=O)C4CC4)cc3c2)CCNC1` (racemic) [Example 205, (RS)—N-[5-[3-[(3-methoxypyrrolidin-3-yl)methoxy]-5-methyl-isoxazol-4-yl]pyrazolo[1,5-a]pyridin-2-yl]cyclopropanecarboxamide], 0.0235 µM.
Still for that read-out and setting: as for `CCN1CC[C@@H]1COc1cnn(C(F)F)c1-c1ccn2nc(Nc3cc(C)c(OC)nn3)cc2c1` [Example 483, 5-[2-(difluoromethyl)-4-[[(2R)-1-ethylazetidin-2-yl]methoxy]pyrazol-3-yl]-N-(6-methoxy-5-methyl-pyridazin-3-yl)pyrazolo[1,5-a]pyridin-2-amine], the figure is 0.0009 µM.
At SIK2 [2], `CO[C@H]1CNC[C@H]1Oc1cnn(C)c1-c1ccn2nc(NC(=O)C3CC3)cc2c1` (stereo in doubt) [Example 5, N-(5-(4-(((3*R,4*S)-4-methoxypyrrolidin-3-yl)oxy)-1-methyl-1H-pyrazol-5-yl)pyrazolo[1,5-a]pyridin-2-yl)cyclopropanecarboxamide] yielded a 50% inhibitory concentration (IC50) of 0.0109 µM.
Still for that read-out and setting: as for `CN1CC(F)(COc2cnn(C)c2-c2ccn3nc(NC(=O)C4CC4)cc3c2)C1` [Example 405, N-[5-[4-[(3-fluoro-1-methyl-azetidin-3-yl)methoxy]-2-methyl-pyrazol-3-yl]pyrazolo[1,5-a]pyridin-2-yl]cyclopropanecarboxamide], the figure is 0.0983 µM.
On SIK2 [2], `CN1CCC[C@H]1COc1cnn(C)c1-c1ccn2nc(NC(=O)C3CC3)cc2c1` [Example 419, N-[5-[2-methyl-4-[[(2S)-1-methylpyrrolidin-2-yl]methoxy]pyrazol-3-yl]pyrazolo[1,5-a]pyridin-2-yl]cyclopropanecarboxamide] gave an IC50 of 0.136 µM.
Consider `CO[C@H]1CNC[C@@H]1Oc1cnn(C)c1-c1ccn2nc(NC(=O)C3CC3)cc2c1` (racemic) [Example 421, (rac-trans)-N-[5-[4-(4-methoxypyrrolidin-3-yl)oxy-2-methyl-pyrazol-3-yl]pyrazolo[1,5-a]pyridin-2-yl]cyclopropanecarboxamide], for which the half-maximal inhibitory concentration (IC50) on SIK2 [2] amounted to 0.116 µM.
On the same count and under the same terms, under `Cc1nc(C)c(C)c(Nc2cc3cc(-c4c(OC[C@H]5CCN5C)cnn4C)ccn3n2)n1` [Example 57, 5-[2-methyl-4-[[(2R)-1-methylazetidin-2-yl]methoxy]pyrazol-3-yl]-N-(2,5,6-trimethylpyrimidin-4-yl)pyrazolo[1,5-a]pyridin-2-amine] stands 0.471 µM.
